Measurements from patent publication US12258308B2, “Benzene derivative” (ONO PHARMACEUTICAL CO., LTD., priority 2018, dated 2025).

Tested on: rat Schwann cells
Experiment: In vitro test using Schwann cells (Schwann cell differentiation promotion, MAG immunostaining)
Format: cell-based
Conditions: 3 days, MAG-positive area/cell nuclei; for activity at 0.3 µM / activity at 3 µM: Rattus norvegicus, 72 h; for activity at 0.3 µM: read-out: Schwann cell differentiation promotion rate (% of vehicle) 0.3 μmol/L; for activity at 3 µM: read-out: Schwann cell differentiation promotion rate (% of vehicle) 3 μmol/L
Protocol: Biological Experiment Example 1: In Vitro Test Using Schwann Cells
• (1) Preparation of rat Schwann cells
A dorsal root ganglion (abbreviated as “DRG”, hereinafter) was excised from a newborn rat aged 0 to 2 days in a clean bench and was collected in DMEM. After the collection, the tube was centrifuged at 400 g, at room temperature for 3 minutes, then a supernatant was discarded, and a 0.25% collagenase solution was added. There resultant solution was incubated at 37° C. for 30 minutes to disperse and separate the excised DRG, and was then centrifuged at room temperature at 400 g for 3 minutes, then a supernatant was discarded, and then 0.25% Trypsin/EDTA and DNaseI were added. After the incubation at 37° C. for 30 minutes, trypsin was inactivated with DMEM supplemented with 10% FBS (10% FBS-DMEM), and centrifugation was carried out at room temperature at 400 g for 3 minutes. A supernatant was discarded, then 10% FBS-DMEM was added to the residue to prepare a cell suspension, and then the cell suspension was allowed to pass through a filter (diameter: 70 μm). The number of cells in the cell suspension which passed through the filter was counted to prepare a solution having a concentration of 2.0×10^5 cells/mL, and the suspension was seeded in a poly-D-lysine-coated 96-well black-clear plate in an amount of 100 μL/well and was then statically cultured in a CO2 incubator under the conditions including 5% of CO2, 95% of air and 37° C.
The culture medium in the cell culture plate was removed by suction using an aspirator, and then DMEM supplemented with 1% dialyzed FBS and 100 μmol/L dibutyryl cyclic AMP was added. Subsequently, a solution of a compound of the present invention dissolved in DMSO was added, and the resultant solution was statically cultured in a C02 incubator under the conditions including 5% of C02, 95% of air and a temperature of 37° C. The final concentration of the compound of the present invention in each well in the cell culture plate was adjusted to 0.1, 0.3, 1 or 3 μmol/L.
Three days after the treatment with the compound, formaldehyde was added to each well in the cell culture plate, and the cell culture plate was allowed to stand at room temperature for 30 minutes or longer. A supernatant was discarded, and then a 0.3% tritonX-100 solution was added to each well, and then the cell culture plate was allowed to stand at room temperature for 20 minutes or longer. A supernatant was discarded, then a 5-μg/mL anti-myeline-associated glycoprotein antibody (anti-MAG antibody) solution was added to each well, and then the cell culture plate was allowed to stand at room temperature for 60 minutes or longer or at 4° C. (acceptable range: 1 to 9° C.) overnight. Each well was washed with a 0.1% tritonX-100 solution three times, then a 10-μg/mL Alexa fluor 488 anti-mouse IgG solution was added to each well, and then the cell culture plate was allowed to stand at room temperature for 60 or longer or at 4° C. overnight. Each well was washed with a 0.1% tritonX-100 solution four times, and then a 1-μg/mL Hoechst33342 solution was added to each well to stain nuclei.
The Mag-positive area and the number of cell nuclei in a fluorescent image were calculated. With respect to each of the MAG-positive area and the number of cell nuclei, the sum total of values obtained in 5 viewing fields/well was determined. The values were employed as a value for the MAG-positive area and a value for the number of cell nuclei, respectively, in each well. Subsequently, a value determined by dividing the value for the MAG-positive area in each well by the value for the number of cell nuclei in the well (i.e., MAG/cell nuclei numerical value) was calculated. The Schwann cell differentiation promotion rate was determined for each of the vehicles in accordance with the following formula. […]

SMILES | activity at 0.3 µM (compound 0.3 μmol/L) | activity at 3 µM (compound 3 μmol/L) | Schwann cell differentiation promotion rate (% of vehicle) 0.3 μmol/L (compound 0.3 μmol/L) | Schwann cell differentiation promotion rate (% of vehicle) 3 μmol/L (compound 3 μmol/L)
CC(C)OC(=O)CCc1ccccc1OCC[C@@H](O)/C=C/c1cccc(NS(=O)(=O)c2ccccc2)c1 [Example 10, Propan-2-yl 3-[2-[(E,3R)-5-[3-(benzenesulfonamido)phenyl]-3-hydroxypent-4-enoxy]phenyl]propanoate] | 86.2% | 593% |  | 
O=C(O)CCc1ccccc1OCC[C@@H](O)/C=C/c1ccccc1NC(=O)c1ccccc1 [Example 12(5), 3-[2-[(E,3R)-5-(2-Benzamidophenyl)-3-hydroxypent-4-enoxy]phenyl]propanoic acid] | 147% | 234% |  | 
O=C(O)CCc1ccccc1OCC[C@@H](O)/C=C/c1cccc(NCc2ccccc2)c1 [Example 12(6), 3-[2-[(E,3R)-5-[3-(Benzylamino)phenyl]-3-hydroxypent-4-enoxy]phenyl]propanoic acid] | 144% | 435% |  | 
O=C(O)CCc1ccccc1OCC[C@@H](O)/C=C/c1cccc(S(=O)(=O)Nc2ccccc2)c1 [Example 12(7), 3-[2-[(E,3R)-3-Hydroxy-5-[3-(phenylsulfamoyl)phenyl]pent-4-enoxy]phenyl]propanoic acid] | 111% | 379% |  | 
O=C(O)CCc1ccccc1OCC[C@@H](O)/C=C/c1cccc(C(=O)Nc2ccccc2)c1 [Example 12(8), 3-[2-[(E,3R)-3-Hydroxy-5-[3-(phenylcarbamoyl)phenyl]pent-4-enoxy]phenyl]propanoic acid] | 158% | 459% |  | 
O=C(O)CCc1ccccc1OCC[C@@H](O)/C=C/c1ccccc1CNS(=O)(=O)c1ccccc1 [Example 12(11), 3-[2-[(E,3R)-5-[2-(Benzenesulfonamidomethyl)phenyl]-3-hydroxypent-4-enoxy]phenyl]propanoic acid] | 203% | 505% |  | 
O=C(O)CCc1ccccc1OCC[C@@H](O)/C=C/c1ccc2c(c1)CN(S(=O)(=O)c1ccccc1)CC2 [Example 13(19), 3-[2-[(E,3R)-5-[2-(Benzenesulfonyl)-3,4-dihydro-1H-isoquinolin-7-yl]-3-hydroxypent-4-enoxy]phenyl]propanoic Acid] | 142% | 598% |  | 
O=C(O)CCc1ccccc1OCC[C@@H](O)/C=C/c1cccc(C[C@H](O)c2ccccc2)c1 [Example 26, 3-[2-[(E,3R)-3-Hydroxy-5-[3-[(2S)-2-hydroxy-2-phenylethyl]phenyl]pent-4-enoxy]phenyl]propanoic acid] | 196% | 439% |  | 
O=C(O)CCc1ccccc1OCC[C@@H](O)/C=C/c1cccc(C(O)CCc2ccccc2)c1 (stereo partly drawn) [Example 28, 3-[2-[(E,3R)-3-Hydroxy-5-[3-(1-hydroxy-3-phenylpropyl)phenyl]pent-4-enoxy]phenyl]propanoic acid] | 188% | 628% |  | 
O=C(CCc1ccccc1OCC[C@@H](O)/C=C/c1cccc(NS(=O)(=O)c2ccccc2)c1)N1CCOCC1 [Example 32(1), N-[3-[(E,3R)-3-Hydroxy-5-[2-(3-morpholin-4-yl-3-oxopropyl)phenoxy]pent-1-enyl]phenyl]benzenesulfonamide] | 408% |  |  | 
CN(C)C(=O)CCc1ccccc1OCC[C@@H](O)/C=C/c1cccc(NS(=O)(=O)c2ccccc2)c1 [Example 32(2), 3-[2-[(E,3R)-5-[3-(Benzenesulfonamido)phenyl]-3-hydroxypent-4-enoxy]phenyl]-N,N-dimethylpropanamide] | 340% | 788% |  | 
O=C(O)CCc1ccccc1OCC[C@@H](O)C1CC1c1cccc(NS(=O)(=O)c2ccccc2)c1 (stereo partly drawn) [Example 39, 3-[2-[(3R)-3-[2-[3-(Benzenesulfonamido)phenyl]cyclopropyl]-3-hydroxypropoxy]phenyl]propanoic acid] | 211% | 323% |  | 
O=C(O)CCc1ccccc1OCC[C@@H](O)/C=C/c1cccc(NS(=O)(=O)Cc2ccccc2)c1 [Example 74(15), 3-[2-[(E,3R)-5-[3-(Benzilsulfonylamino)phenyl]-3-hydroxypent-4-enoxy]phenyl]propanoic acid] |  |  | 204.5 % of vehicle | 428.1 % of vehicle
O=C(O)CCc1ccccc1OCC[C@@H](O)/C=C/c1cccc(NS(=O)(=O)c2ccccn2)c1 [Example 74(16), 3-[2-[(E,3R)-3-Hydroxy-5-[3-(pyridin-2-ylsulfonylamino)phenyl]pent-4-enoxy]phenyl]propanoic acid] | 212% | 300% |  | 
O=C(O)CCc1ccccc1OCC[C@@H](O)/C=C/c1cccc(NS(=O)(=O)c2coc3ccccc23)c1 [Example 74(17), 3-[2-[(E,3R)-5-[3-(1-Benzofuran-3-ylsulfonylamino)phenyl]-3-hydroxypent-4-enoxy]phenyl]propanoic acid] | 85.6% | 252% |  | 
O=C(O)CCc1ccccc1OCC[C@@H](O)/C=C/c1cccc(NS(=O)(=O)c2ccsc2)c1 [Example 74(19), 3-[2-[(E,3R)-3-Hydroxy-5-[3-(thiophen-3-ylsulfonylamino)phenyl]pent-4-enoxy]phenyl]propanoic Acid] | 187% | 270% |  | 
O=C(O)CCc1ccccc1OCC[C@@H](O)CCc1cccc(NS(=O)(=O)C2CCCC2)c1 [Example 75, 3-[2-[(3S)-5-[3-(Cyclopentylsulfonylamino)phenyl]-3-hydroxypentoxy]phenyl]propanoic Acid] | 181% | 244% |  | 
COC(=O)CCc1ccccc1OCCC(=O)/C=C/c1cccc(NS(=O)(=O)c2ccccc2)c1 [Example 77, Methyl 3-[2-[(E)-5-[3-(benzenesulfonamido)phenyl]-3-oxopent-4-enoxy]phenyl]propanoate] | 115% | 256% |  | 
O=C(O)CCc1ccccc1OCCC/C=C/c1nc(C(O)Cc2ccccc2)cs1 (centres unmarked) [Example 93, 3-[2-[(E)-5-[4-(1-Hydroxy-2-phenylethyl)-1,3-thiazol-2-yl]pent-4-enoxy]phenyl]propanoic acid] | 108% | 374% |  | 
O=C(O)CCc1ccccc1OCCCC(=O)CCc1cccc(NS(=O)(=O)c2ccccc2)c1 [Example 103, 3-[2-[6-[3-(Benzenesulfonamido)phenyl]-4-oxohexoxy]phenyl]propanoic acid] | 199% | 354% |  | 
O=C(O)CCc1ccccc1CCCC(=O)CCc1cccc(NS(=O)(=O)c2ccccc2)c1 [Example 112, 3-[2-[6-[3-(Benzenesulfonamido)phenyl]-4-oxohexyl]phenyl]propanoic acid] | 255% | 504% |  | 
O=C(O)CCc1ccccc1OCCC(F)(F)CCc1cccc(NS(=O)(=O)c2ccccc2)c1 [Example 139, 3-[2-[5-[3-(Benzenesulfonamido)phenyl]-3,3-difluoropentoxy]phenyl]propanoic acid] | 209% | 541% |  | 
O=C(O)CCc1ccccc1OCCOCCc1cccc(NS(=O)(=O)c2ccccc2)c1 [Example 149, 3-[2-[2-[2-[3-(Benzenesulfonamido)phenyl]ethoxy]ethoxy]phenyl]propanoic Acid] | 160% | 645% |  | 
O=C(O)CCc1ccccc1OCCCCCC1CCC(NS(=O)(=O)c2ccccc2)CC1 (centres unmarked) [Example 166, 3-[2-[5-[4-(Benzenesulfonamido)cyclohexyl]pentoxy]phenyl]propanoic acid] | 104% | 465% |  | 
